Earlier results on 1 compound are cited in patent publication US20240361407A1, “SYSTEMS AND METHODS FOR GENERATION OF HYPERPOLARIZED MATERIALS” (priority 2021, published 2024).

Each structure is given as a SMILES string. Converted amounts (≈) assume the structure as drawn.

For this data set the following is noted: aqueous solution.

As usually defined, the solubility is the dissolved amount per volume that the medium holds. Regarding `O=C(O)/C=C/C(=O)O` [fumaric acid], the solubility is listed as 60 mM (≈ 6960 µg/mL).
